Assay [1] deals with adipocyte differentiation from WT marrow. Description: Ex vivo bone marrow adipocyte differentiation. Format: cell-based, mouse. The conditions noted are these: 10 nM, vs vehicle control. The procedure: (§1) Ex Vivo Bone Marrow Differentiation. Bone marrow cells were cultured for 4 days in MSC media (Mouse MesenCult® Proliferation Kit, StemCell Technologies), then differentiated into osteoblast with a-MEM containing 10% FBS, 5 mM β-glycerophosphate and 100 μg/ml ascorbic acid for 9 days, or differentiated into adipocytes with adipogenesis medium (MesenCult Basal Medium+Mouse MesenCult Adipogenic Stimulatory Supplement, StemCell Technologies) for 7 days (Wei et al., 2012; Wei et al., 2011a; Wei et al., 2011b). For ghrelin knockdown, siRNA was transfected twice with Fugene HD (Roche) the day before and 3 days after differentiation. Osteoclast differentiation was performed as described (Wan et al., 2007; Wei et al., 2010).

Assay [2] relates to osteoblast differentiation from WT marrow. Description: Ex vivo bone marrow osteoblast differentiation. Format: cell-based, mouse. The conditions noted are these: 10 nM, vs vehicle control. As for the experimental part: as §1
Assay [3] concerns ghrelin. Description: Ghrelin expression and secretion in marrow osteoblast differentiation cultures. It is filed as cell-based, mouse. The conditions noted are these: 10 nM; for ghrelin induction during osteoblast differentiation: ghrelin mRNA; for ghrelin secretion: osteoblast culture.
The subject of assay [4] is ghrelin. Description: Ghrelin expression and secretion in marrow adipocyte differentiation cultures. Format: cell-based, mouse. The conditions noted are these: for ghrelin expression in adipocyte differentiation cultures: 10 nM, ghrelin mRNA; for ghrelin secretion: adipocyte culture (not shown).
The target of a further assay is T1, orexin-A receptor (Rattus norvegicus, UniProt P56718).
T1 construct: The insula contains orexin-A receptors; from tissue; host or cells: rat brain (insula; whole brain), in vivo
T1 sequence (P56718 1-416): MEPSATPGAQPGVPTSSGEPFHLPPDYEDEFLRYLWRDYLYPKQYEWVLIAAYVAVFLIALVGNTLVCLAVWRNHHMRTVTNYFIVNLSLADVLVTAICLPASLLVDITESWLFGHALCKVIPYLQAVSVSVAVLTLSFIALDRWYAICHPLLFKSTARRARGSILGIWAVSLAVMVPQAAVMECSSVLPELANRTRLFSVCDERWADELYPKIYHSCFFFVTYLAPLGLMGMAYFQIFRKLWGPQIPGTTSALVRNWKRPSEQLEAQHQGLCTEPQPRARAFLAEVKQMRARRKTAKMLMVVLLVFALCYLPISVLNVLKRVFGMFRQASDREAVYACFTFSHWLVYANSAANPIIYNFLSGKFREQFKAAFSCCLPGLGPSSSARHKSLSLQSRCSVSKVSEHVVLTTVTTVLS
The conditions noted are these: rats, low doses; cited from earlier work.

For another assay, the system named is insomniacs. The conditions noted are these: phase III, three months; cited from earlier work.
Another assay has as its system Ob/Ob mice. Description: Chronic ICV injection of OX2R agonist in Ob/Ob mice. Format: in vivo, mouse. As for the experimental part: (§2) Bone Analyses. μCT and histomorphometry were performed as described (Wei et al., 2012; Wei et al., 2010). Calcein (20 mg/kg) were injected 2 and 10 days before bone collection. For strength measurement, tibiae were tested by 3-point bending, and a strength parameter (peak load at failure) was assessed with a Test Resources DDL200 axial loading machine outfitted with an Interface SMT1-22 force transducer. Cross-head displacement rate was 0.1 mm/sec. Tests were conducted on the mid-diaphyses with the bones resting on two supports 5 mm apart and the tibial anterior margins facing upward toward the actuator. Serum P1NP and CTX-1 were measured with the Rat/Mouse P1NP EIA kit and the RatLaps™ EIA kit, respectively (Immunodiagnostic Systems) (Wei et al., 2012).
(§3) Chronic ICV Injection. Mice were single-housed one week before surgery. After anesthetized with 2-3% isoflurane, a cannula (3300PM/SPC; PlasticsOne) was implanted into the right lateral ventricle (0.3 mm posterior from the bregma, […] lateral from the midline, and 2.4 mm from the surface of skull) using standard sterile stereotactic techniques as described (Funato et al., 2009). An osmotic minipump (model 1004; Alzet) was attached to the cannula and implanted in the subcutaneous space. The OX2R selective agonist ([Ala11, D-Leu15] Orexin-B; American Peptide) (Asahi et al., 2003) or PBS control was continuously injected in the lateral ventricle for 35 days (0.5 nmol/day) before analyses. Ovariectomy or sham operation was performed 3 days before ICV infusion as described (Wei et al., 2011b).

For a further assay, the system named is WT mice. Description: Chronic ICV injection of OX2R agonist in WT mice, bone analyses. It is filed as in vivo, mouse. The procedure: as §2, §3
In the next assay the test system is OX2R-KO mice. Description: Chronic ICV injection of OX2R agonist in OX2R-KO mice. Format: in vivo, mouse. The conditions noted are these: ICV 0.5 nmol/day for 35 days. As for the experimental part:
as §2
Chronic ICV Injection. Mice were single-housed one week before surgery. After anesthetized with 2-3% isoflurane, a cannula (3300PM/SPC; PlasticsOne) was implanted into the right lateral ventricle (0.3 mm posterior from the bregma, […] lateral from the midline, and 2.4 mm from the surface of skull) using standard sterile stereotactic techniques as described (Funato et al., 2009). An osmotic minipump (model 1004; Alzet) was attached to the cannula and implanted in the subcutaneous space. […]

Assay [5] deals with OVX-induced bone loss in WT female mice. Description: Chronic ICV injection of OX2R agonist in ovariectomy (OVX) mouse model. Format: in vivo. The conditions noted are these: ICV 0.5 nmol/day for 35 days from 3 days after OVX, 6-month-old female mice. As for the experimental part: as §2, §3
Another assay addresses T2, OX1 (Homo sapiens, UniProt O43613).
T2 sequence (O43613 1-425): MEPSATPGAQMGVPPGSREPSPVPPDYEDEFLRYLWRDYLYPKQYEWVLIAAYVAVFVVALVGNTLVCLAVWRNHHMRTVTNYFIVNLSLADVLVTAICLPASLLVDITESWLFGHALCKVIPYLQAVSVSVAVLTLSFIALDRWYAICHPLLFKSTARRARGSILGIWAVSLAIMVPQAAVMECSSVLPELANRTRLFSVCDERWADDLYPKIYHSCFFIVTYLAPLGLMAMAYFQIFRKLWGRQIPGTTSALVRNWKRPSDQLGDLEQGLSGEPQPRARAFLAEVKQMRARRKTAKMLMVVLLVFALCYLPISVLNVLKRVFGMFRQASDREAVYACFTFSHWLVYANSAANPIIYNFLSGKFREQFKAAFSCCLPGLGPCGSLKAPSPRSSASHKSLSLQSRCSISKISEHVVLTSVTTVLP
The conditions noted are these: OX1 vs OX2; cited from earlier work.

The subject of the next assay is 3T3-L1 adipocytes. The conditions noted are these: cited from earlier work.
The next assay addresses T3, orexin receptor type 2 (Homo sapiens, UniProt O43614).
T3 sequence (O43614 1-444): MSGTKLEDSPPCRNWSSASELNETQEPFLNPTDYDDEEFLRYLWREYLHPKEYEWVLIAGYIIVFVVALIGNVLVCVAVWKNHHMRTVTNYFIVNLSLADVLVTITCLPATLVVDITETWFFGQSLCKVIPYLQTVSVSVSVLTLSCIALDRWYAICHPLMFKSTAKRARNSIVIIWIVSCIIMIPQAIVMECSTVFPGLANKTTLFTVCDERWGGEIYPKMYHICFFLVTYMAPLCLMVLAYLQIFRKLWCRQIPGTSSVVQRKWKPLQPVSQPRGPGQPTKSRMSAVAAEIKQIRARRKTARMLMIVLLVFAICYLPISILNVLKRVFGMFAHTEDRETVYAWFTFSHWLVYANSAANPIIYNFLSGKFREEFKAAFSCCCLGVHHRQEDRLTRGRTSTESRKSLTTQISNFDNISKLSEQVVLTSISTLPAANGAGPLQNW
The conditions noted are these: type 2 vs type 1; cited from earlier work.

[6] abbreviates: ICV 0.5 nmol/day for 35 days, WT male mice, serum.
[7] abbreviates: ICV 0.5 nmol/day for 35 days, WT male mice, tibiae μCT.

Where no end group is shown, it is not given here.

As for `CNC(=O)[C@@H](c1ccccc1)N1CCc2cc(OC)c(OC)cc2[C@@H]1CCc1ccc(C(F)(F)F)cc1` [ACT-078573, almorexant], in assay [1], the adipocyte differentiation result is “attenuated”. Besides, the osteoblast differentiation result in [2] was “promoted”. In the assay with ghrelin [3], the “ghrelin induction during osteoblast differentiation” value is on record as “potentiated” and the ghrelin secretion result was “elevated”. In addition, in the assay with ghrelin [4], the “ghrelin expression in adipocyte differentiation cultures” value was “enhanced” and the ghrelin secretion result is listed as “elevated”.

Take `Cc1nc2ccc(NC(=O)Nc3ccnc4cccnc34)cc2o1` [SB-334,867]: the nicotine self-administration entry on orexin-A receptor is reported as “decreased”.

Turning to `Cc1cc(NC(=O)Nc2ccc(N(C)C)cc2)c2cc(F)cc(F)c2n1` [SB-408124], the adipocyte differentiation entry in assay [1] is recorded as “attenuated”. Moreover, the osteoblast differentiation result in [2] is on record as “promoted”. Moreover, in the assay on ghrelin [3], the “ghrelin induction during osteoblast differentiation” value is “potentiated” and the ghrelin secretion entry was “elevated”. Further, in the assay with ghrelin [4], the “ghrelin expression in adipocyte differentiation cultures” value is on record as “enhanced” and the ghrelin secretion result was “elevated”.

As to `Cc1ccc(-n2nccn2)c(C(=O)N2CCN(c3nc4cc(Cl)ccc4o3)CC[C@H]2C)c1` [suvorexant], in the assay with insomniacs, the falling asleep result was “faster” and the sleep duration result is reported as “an hour longer”.

As for [Ala11, D-Leu15] Orexin-B [OX2R-AG], in the assay on Ob/Ob mice, the BV/TV result is recorded as “no longer able to increase”, the Tb.N result is reported as “no longer able to increase” and the Tb.Sp result is “no longer able to increase”. The bone enhancing effects entry in the assay with Ob/Ob mice (12 week old male) was “completely abolished”. Besides, the P1NP entry in the assay with Ob/Ob mice (serum) is on record as “no longer able to increase”. Moreover, the “bone mass (μCT)” value in the assay with WT mice (ICV 0.5 nmol/day for 35 days, WT male mice) was “remarkably enhanced”. In the assay on WT mice (setting [6]), the CTX-1 result is reported as “unaltered” and the “P1NP, increased” value was determined as 100%. The “peak load at fracture, higher” value in the assay on WT mice (ICV 0.5 nmol/day for 35 days, WT male mice, three-point bending) was 11%. In the assay on WT mice (setting [7]), the “BMD, higher” value is 8%; the “SMI, lower” value worked out at 25%; the “Tb.N, higher” value worked out at 32%; the “Tb.Sp, lower” value came to 33%. In addition, in the assay with WT mice (setting [7]), the “Tb.Th, higher” value is listed as 30%; the “cortical bone BV/TV, higher” value was 1%; the “cortical bone porosity, less” value came to 30%; the “trabecular BV/TV, higher” value stood at 66%. Also, the serum leptin levels entry in the assay on WT mice (ICV injection, WT mice) is listed as “decreased”. Further, the “Serum P1NP” value in the assay with OX2R-KO mice (10-week-old OX2R-KO male mice) was “unaltered”. Moreover, in the assay with OX2R-KO mice (OX2R-KO male mice), the bone anabolic effect entry is “abolished”. For the same compound, in assay [5], the OVX-induced bone loss result is listed as “attenuated”, the “OVX-mediated increase in CTX-1” value is “not significantly altered”, the “OVX-mediated reduction in P1NP” value is on record as “significantly abolished” and the “OVX-mediated reduction in bone formation rate” value is given as “rescued”. Further, in assay [5], the “OVX-mediated reduction in osteoblast number” value is reported as “rescued”.

Take “orexin-A: Human orexin-A peptide, 33 amino acid residues, agonist for OX1R and OX2R (QPLPDCCRQKTCSCRLYELLHGAGNHAAGILTL; ends and bridges not checked; cysteine pairing not given here; UniProt O43612 34-66, looked up)”: in the assay with OX1, the “binding to both OX1 and OX2” value is “approximately equal affinity”. For the same compound, the adipocyte differentiation entry in [1] is “enhanced”. Moreover, the osteoblast differentiation entry in assay [2] was “inhibited”. Besides, the “ghrelin induction during osteoblast differentiation” value in the assay on ghrelin [3] is listed as “abolished”. The “ghrelin expression in adipocyte differentiation cultures” value in the assay on ghrelin [4] is “inhibited”. The glucose uptake entry in the assay with 3T3-L1 adipocytes (3T3-L1 adipocytes) is recorded as “stimulates”. Also, in the assay on 3T3-L1 adipocytes (adipocytes), the lipogenesis entry was “increases”, the lipolysis entry was “inhibits” and the secretion of adiponectin result is reported as “stimulates”.

Turning to “orexin-B: Human orexin-B, linear 28 amino acid residue peptide, agonist for mainly OX2R”, in the assay with OX1, the “potency at OX1, less than at OX2” value is reported as 5 times. Further, the “selectivity for orexin receptor type 2” value with orexin receptor type 2 is listed as 10 fold.

Source of the values: patent US20160250224A1, “OREXIN-CONTROL OF BONE FORMATION AND LOSS” (THE BOARD OF REGENTS OF THE UNIVERSITY OF TEXAS SYSTEM, priority 2013, published 2016).
